Results on 24 compounds are retold here after US11712438B2, “Phenyl derivatives as PGE2 receptor modulators” (IDORSIA PHARMACEUTICALS LTD, priority 2017, dated 2023).

The pIC50 is the IC50 on a negative log10 scale, so that one unit is a factor of ten. Low values mean a high IC50, high ones a low IC50.

Some targets named below: PTRGER4 (EP4) (Homo sapiens, UniProt P35408); EP2 (Homo sapiens, UniProt P43116); EP4 (Homo sapiens, UniProt P35408); PTGER2 (EP2) (Homo sapiens, UniProt P43116).
Test in all cases: cell-based

Each structure is given as a SMILES string. pIC50: −log10 of the molar value.

Chain of EP2 (P43116 whole entry): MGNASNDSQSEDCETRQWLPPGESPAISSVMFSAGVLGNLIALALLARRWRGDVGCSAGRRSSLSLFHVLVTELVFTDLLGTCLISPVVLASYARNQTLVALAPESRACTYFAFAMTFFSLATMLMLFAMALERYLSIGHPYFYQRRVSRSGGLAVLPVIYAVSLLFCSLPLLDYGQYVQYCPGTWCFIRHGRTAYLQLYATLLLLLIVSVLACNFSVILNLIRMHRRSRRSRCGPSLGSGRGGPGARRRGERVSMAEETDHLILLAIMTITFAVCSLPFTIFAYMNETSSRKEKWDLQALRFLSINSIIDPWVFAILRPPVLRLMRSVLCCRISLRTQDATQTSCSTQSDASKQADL
Chain of PTGER2 (EP2) (P43116 whole entry): as above
Chain of EP4 (P35408 whole entry): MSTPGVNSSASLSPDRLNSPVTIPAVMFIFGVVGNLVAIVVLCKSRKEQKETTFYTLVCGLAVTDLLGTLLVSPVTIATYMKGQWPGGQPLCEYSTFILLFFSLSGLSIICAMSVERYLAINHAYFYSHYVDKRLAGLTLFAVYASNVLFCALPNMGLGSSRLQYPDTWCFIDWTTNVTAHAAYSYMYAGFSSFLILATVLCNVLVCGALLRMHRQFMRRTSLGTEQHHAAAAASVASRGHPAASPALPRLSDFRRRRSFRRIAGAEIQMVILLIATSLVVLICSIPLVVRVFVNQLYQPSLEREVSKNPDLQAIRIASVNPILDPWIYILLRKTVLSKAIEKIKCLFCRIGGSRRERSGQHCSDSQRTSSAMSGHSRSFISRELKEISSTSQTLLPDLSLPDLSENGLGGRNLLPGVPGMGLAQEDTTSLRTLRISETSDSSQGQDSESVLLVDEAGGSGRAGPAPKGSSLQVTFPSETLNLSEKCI
Chain of PTRGER4 (EP4) (P35408 whole entry): as above

Turning to `CCOc1cc(-c2cc(NCCc3cc(Br)ccc3OC)ncn2)sc1-c1noc(=O)[nH]1` [Example 120, 3-(5-{6-[2-(5-Bromo-2-methoxy-phenyl)-ethylamino]-pyrimidin-4-yl}-3-ethoxy-thiophen-2yl)-[1,2,4]oxadiazol-5(4H)-one], the pIC50 against PTRGER4 (EP4) is 7.68; against EP2, 7.89; on EP4, 7.16; on PTGER2 (EP2), 7.46.

For `CCOc1cc(Br)ccc1CCNc1cc(-c2cc(OCC)c(-c3noc(=O)[nH]3)s2)ncn1` [Example 85, 3-(5-{6-[2-(4-Bromo-2-ethoxy-phenyl)-ethylamino]-pyrimidin-4-yl}-3-ethoxy-thiophen-2-yl)-[1,2,4]oxadiazol-5(4H)-one], the pIC50 was 8.22 at PTRGER4 (EP4), 8.15 against EP2, 7.92 on EP4 and 8.10 at PTGER2 (EP2).

`CC(C)Cc1cc(-c2cc(NCCc3c(F)cc(Br)cc3F)ncn2)ccc1CC(=O)O` [Example 244, (4-{6-[2-(4-Bromo-2,6-difluoro-phenyl)-ethylamino]-pyrimidin-4-yl}-2-isobutyl-phenyl)-acetic acid]: the pIC50 on PTRGER4 (EP4) is 6.60; against EP2, 5.95; against EP4, 6.55; at PTGER2 (EP2), 6.44.

For the compound `CC(C)Cc1cc(-c2cc(NCCc3c(F)cc(Br)cc3F)ncn2)ccc1C(=O)O` [Example 38, 4-{6-[2-(4-Bromo-2,6-difluoro-phenyl)-ethylamino]-pyrimidin-4-yl}-2-isobutyl-benzoic acid], the pIC50 against PTRGER4 (EP4) was 6.69; at EP2, 6.89; against EP4, 7.09; against PTGER2 (EP2), 6.56.

As to `CCOc1cc(-c2cc(NCCc3ccc(Br)cc3C)ncn2)sc1-c1noc(=O)[nH]1` [Example 127, 3-(5-{6-[2-(4-Bromo-2-methyl-phenyl)-ethylamino]-pyrimidin-4-yl}-3-ethoxy-thiophen-2-yl)-[1,2,4]oxadiazol-5(4H)-one], the pIC50 was 7.85 on PTRGER4 (EP4), 6.89 at EP2, 7.33 against EP4 and 7.54 on PTGER2 (EP2).

For `O=C(O)c1ccc2[nH]c(-c3cc(NCCc4c(F)cc(Br)cc4F)ncn3)cc2c1` [Example 168, 2-{6-[2-(4-Bromo-2,6-difluoro-phenyl)-ethylamino]-pyrimidin-4-yl}-1H-indole-5-carboxylic acid], the pIC50 against PTRGER4 (EP4) was 6.71; at EP2 it was 5.77; against EP4, 5.70; against PTGER2 (EP2) it was 6.72.

Turning to `CCOc1cc(-c2cc(NCCc3c(C)cccc3OC)ncn2)sc1C(=O)O` [Example 178, 3-Ethoxy-5-{6-[2-(2-methoxy-6-methyl-phenyl)-ethylamino]-pyrimidin-4-yl}-thiophene-2-carboxylic acid], the pIC50 against PTRGER4 (EP4) was 6.39; against EP2 it was 8.00; against EP4, 6.87; against PTGER2 (EP2), 7.54.

For `CCOc1cc(-c2cc(NCCc3ccccc3)ncn2)sc1C(=O)O` [Example 75, 3-Ethoxy-5-(6-phenethylamino-pyrimidin-4-yl)-thiophene-2-carboxylic acid], the pIC50 was 5.66 on PTRGER4 (EP4), 6.25 against EP2, 6.04 at EP4 and 6.14 on PTGER2 (EP2).

In the case of `CCOc1cc(-c2cc(NCCc3c(F)cc(F)cc3F)ncn2)sc1-c1noc(=O)[nH]1` [Example 101, 3-(3-Ethoxy-5-{6-[2-(2,4,6-trifluoro-phenyl)-ethylamino]-pyrimidin-4-yl}-thiophen-2-yl)-[1,2,4]oxadiazol-5(4H)-one], the pIC50 at PTRGER4 (EP4) is 6.99; against EP2 it was 7.21; against EP4, 7.09; at PTGER2 (EP2) it was 7.36.

As for `Cc1ccc(CCNc2cc(-c3cc(C(F)(F)F)c(C(=O)O)s3)ncn2)cc1` [Example 62, 5-[6-(2-p-Tolyl-ethylamino)-pyrimidin-4-yl]-3-trifluoromethyl-thiophene-2-carboxylic acid], the pIC50 against PTRGER4 (EP4) was 6.97; against EP2, 6.75; against EP4, 7.10; against PTGER2 (EP2), 6.49.

Consider `CCc1cc(-c2cc(NCCc3c(F)cc(Br)cc3F)ncn2)sc1C(N)=O` [Example 281, 5-{6-[2-(4-Bromo-2,6-difluoro-phenyl)-ethylamino]-pyrimidin-4-yl}-3-ethyl-thiophene-2-carboxylic acid amide], for which the pIC50 against PTRGER4 (EP4) is 7.43; at EP2 it was 7.33; against EP4, 7.09; on PTGER2 (EP2) it was 7.25.

Regarding `CCOc1cc(-c2cc(NCCc3cccc(OC)c3)ncn2)sc1C(=O)O` [Example 59, 3-Ethoxy-5-{6-[2-(3-methoxy-phenyl)-ethylamino]-pyrimidin-4-yl}-thiophene-2-carboxylic acid], the pIC50 against PTRGER4 (EP4) is 6.77; against EP2, 6.88; against EP4, 7.29; at PTGER2 (EP2) it was 6.44.

Regarding `CCOc1cc(-c2cc(NCCc3c(F)cc(Br)cc3F)ncn2)ccc1Cc1noc(=S)[nH]1` [Example 283, 3-(4-{6-[2-(4-Bromo-2,6-difluoro-phenyl)-ethylamino]-pyrimidin-4-yl}-2-ethoxy-benzyl)-[1,2,4]oxadiazole-5(4H)-thione], the pIC50 is 6.61 at PTRGER4 (EP4), 6.02 at EP2, 6.23 on EP4 and 6.93 against PTGER2 (EP2).

For `CCOc1cc(-c2cc(NCCc3c(F)cc(Br)cc3F)ncn2)ccc1Cc1noc(=O)[nH]1` [Example 282, 3-(4-{6-[2-(4-Bromo-2,6-difluoro-phenyl)-ethylamino]-pyrimidin-4-yl}-2-ethoxy-benzyl)-[1,2,4]oxadiazol-5(4H)-one], the negative logarithm of the IC50 (pIC50) against PTRGER4 (EP4) was 7.08; against EP2, 5.99; against EP4, 6.42; on PTGER2 (EP2) it was 6.87.

As to `O=C(O)c1cccc2[nH]c(-c3cc(NCCc4c(F)cc(Br)cc4F)ncn3)cc12` [Example 46, 2-{6-[2-(4-Bromo-2,6-difluoro-phenyl)-ethylamino]-pyrimidin-4-yl}-1H-indole-4-carboxylic acid], the pIC50 is 6.83 on PTRGER4 (EP4), 6.52 on EP2, 6.33 at EP4 and 6.98 on PTGER2 (EP2).

With `COc1cc(-c2cc(NCCc3c(F)cc(Br)cc3F)ncn2)ccc1-c1cc(O)no1` [Example 174, 5-(4-{6-[2-(4-Bromo-2,6-difluoro-phenyl)-ethylamino]-pyrimidin-4-yl}-2-methoxy-phenyl)-isoxazol-3-ol], the negative logarithm of the IC50 (pIC50) is 6.97 at PTRGER4 (EP4), 6.58 against EP2, 7.03 at EP4 and 7.44 against PTGER2 (EP2).

As to `CCOc1cc(-c2cc(NCCc3cc(C)c(Br)cc3F)ncn2)sc1-c1noc(=O)[nH]1` [Example 114, 3-(5-{6-[2-(4-Bromo-2-fluoro-5-methyl-phenyl)-ethylamino]-pyrimidin-4-yl}-3-ethoxy-thiophen-2yl)-[1,2,4]oxadiazol-5(4H)-one], the pIC50 against PTRGER4 (EP4) is 8.52; against EP2, 7.57; against EP4 it was 8.10; against PTGER2 (EP2), 7.82.

`COc1cc(C(F)F)c(F)cc1CCNc1cc(-c2ccc(C(=O)O)c(SC)c2)ncn1` [Example 187, 4-{6-[2-(4-Difluoromethyl-5-fluoro-2-methoxy-phenyl)-ethylamino]-pyrimidin-4-yl}-2-methylsulfanyl-benzoic acid]: the negative-log IC50 (pIC50) is 6.67 on PTRGER4 (EP4), 6.59 against EP2, 6.70 against EP4 and 6.89 on PTGER2 (EP2).

Regarding `CCOc1cc(-c2cc(NCCc3ccc(Br)cc3)ncn2)sc1-c1nnn[nH]1` [Example 131, [2-(4-Bromo-phenyl)-ethyl]-{6-[4-ethoxy-5-(1H-tetrazol-5-yl)-thiophen-2-yl]-pyrimidin-4-yl}-amine], the pIC50 on PTRGER4 (EP4) is 8.52; on EP2 it was 7.27; against EP4 it was 7.96; at PTGER2 (EP2) it was 7.74.

On to `CCOc1cc(-c2cc(NCCc3c(F)cc(Br)cc3F)ncn2)ccc1-c1noc(=O)[nH]1` [Example 234, 3-(4-{6-[2-(4-Bromo-2,6-difluoro-phenyl)-ethylamino]-pyrimidin-4-yl}-2-ethoxy-phenyl)-[1,2,4]oxadiazol-5(4H)-one], for which the pIC50 against PTRGER4 (EP4) was 7.31; against EP2, 7.03; at EP4 it was 7.64; against PTGER2 (EP2), 7.11.

With `CCOc1cc(-c2cc(NCCc3ccc(OC)cc3F)ncn2)sc1-c1noc(=O)[nH]1` [Example 92, 3-(3-Ethoxy-5-{6-[2-(2-fluoro-4-methoxy-phenyl)-ethylamino]-pyrimidin-4-yl}-thiophen-2yl)-[1,2,4]oxadiazol-5(4H)-one], the pIC50 at PTRGER4 (EP4) was 8.40; on EP2 it was 7.17; on EP4, 8.40; at PTGER2 (EP2), 7.32.

Take `CCOc1cc(-c2cc(NCCc3ccc(Br)c(Cl)c3)ncn2)sc1-c1noc(=O)[nH]1` [Example 106, 3-(5-{6-[2-(4-Bromo-3-chloro-phenyl)-ethylamino]-pyrimidin-4-yl}-3-ethoxy-thiophen-2-yl)-[1,2,4]oxadiazol-5(4H)-one]: the negative-log IC50 (pIC50) at PTRGER4 (EP4) is 9.00; at EP2, 7.31; against EP4 it was 8.00; on PTGER2 (EP2), 7.46.

Take `O=C(O)c1ccc(-c2cc(NCCc3c(F)cc(Br)cc3F)ncn2)cc1OC(F)F` [Example 41, 4-{6-[2-(4-Bromo-2,6-difluoro-phenyl)-ethylamino]-pyrimidin-4-yl}-2-difluoromethoxy-benzoic acid]: the pIC50 on PTRGER4 (EP4) is 6.47; on EP2, 7.70; on EP4 it was 6.97; against PTGER2 (EP2), 7.04.

On to `CCOc1cc(C(F)(F)F)ccc1CCNc1cc(-c2ccc(C(=O)O)c(SC)c2)ncn1` [Example 212, 4-{6-[2-(2-Ethoxy-4-trifluoromethyl-phenyl)-ethylamino]-pyrimidin-4-yl}-2-methylsulfanyl-benzoic acid], for which the pIC50 at PTRGER4 (EP4) was 7.30; at EP2 it was 7.21; against EP4, 7.03; on PTGER2 (EP2), 7.59.
